Consider eleven molecules from paper PMC6630517 (Molecules, 2019).

For data set [1], the system named is chloroquine-sensitive (CQS) NF54 strain of Plasmodium falciparum. Description: In vitro antiplasmodial assay (parasite lactate dehydrogenase), NF54 strain. The format is cell-based. The note with it: for activity in the sensitive strain (in words): NF54 strain. How it is done:
(§1) Continuous in vitro cultures of asexual erythrocyte stages of P. falciparum were maintained using a modified method by Trager and Jensen. Quantitative assessment of the antiplasmodial activity in vitro was determined via the parasite lactate dehydrogenase assay using a modified method described by Makler. […] Samples were tested as a suspension if not completely dissolved. Stock solutions were stored at −20 °C. Further dilutions were prepared on the day of the experiment. […] The vitamin B12 complexes were tested at starting concentrations up to 50 μg/ mL, which was then serially diluted 2-fold in complete medium to give 10 concentrations. The ligands were tested at a starting concentration of 10 μg/mL, which was serially diluted 2-fold in complete medium to give 10 concentrations. […] The IC50 values were obtained using a non-linear dose-response curve fitting analysis via Graph Pad Prism v.5.0 software (GraphPad Software Inc., San Diego, CA, USA).

In data set [2] the test system is chloroquine-resistant (CQR) K1 strain of Plasmodium falciparum. Description: In vitro antiplasmodial assay (parasite lactate dehydrogenase), K1 strain. The format is cell-based. The note with it: for Resistance Index (RI): RI = IC50 (CQR)/IC50 (CQS); for activity against the CQR K1 strain relative to CQS (in words): resistance indices very close to unity. How it is done: as §1

In data set [3] the test system is Tg(fabp10:EGFP) zebrafish embryos. Description: Zebrafish bio-distribution, transgenic Tg(fabp10:EGFP) embryos. In kind it is in vivo, Danio rerio. The method, then:
(§2) Because liver toxicity presents one of the most common drawbacks of the drugs approved for the human use, the drugs synthesized in this study were examined for the possible hepatotoxicity in vivo. The transgenic Tg(fabp:EGFP) zebrafish embryos exposed at 72 hpf (a stage when the liver is becoming vascularized and performing metabolic transformation of the absorbed compounds) to the synthesized drugs were evaluated for the liver colour (a possible necrosis sign), size, fluorescence and the liver area index ([…]). These are all parameters commonly used for hepatotoxicity evaluation and to follow the effect of applied therapies on the liver function.
To verify a preferential accumulation of B12-JR1-CBC in the liver, the compound was applied intravenously (parenteral use) to zebrafish embryos.

The test system of data set [4] is Chinese Hamster Ovarian (CHO) cell-line. The format is cell-based. The method, then:
(§3) B12-JR1 was screened for in vitro cytotoxicity against the Chinese Hamster Ovarian (CHO) cell-line using the 3-(4,5-dimethylthiazol-2-yl)-2,5-diphenyltetrazolium bromide (MTT)-assay. The test sample was prepared to a 20 mg mL^−1 stock solution in 100% DMSO and tested in triplicate. Stock solutions were stored at −20 °C. Further dilutions were prepared in complete medium on the day of the experiment. Samples were tested as a suspension if not completely dissolved. Emetine was used as the reference drug in all experiments. The initial concentration of emetine was 100 µg mL^−1, which was diluted in complete medium with 10-fold dilutions to give 6 concentrations, the lowest being 0.001 µg mL^−1. The same dilution technique was applied to all test samples. The highest concentration of solvent to which the cells were exposed to have no measurable effect on the cell viability. […] Furthermore, the cytotoxicity in terms of the antiproliferative effect of B12-JR1, B12-JR2 and B12-JR3 were similarly evaluated by the MTT assay. The assay was carried out using human lung fibroblasts (MRC5) cell line after 48 h of cell incubation in the medium, containing compounds at concentrations ranging from 5 to 200 μM. […] The results were expressed as mean values ± standard deviation (SD) and analysed using Student’s t-test at a threshold level of p = 0.05. […]

For data set [5], the system named is zebrafish (Danio rerio) embryos. Description: Zebrafish embryo toxicity (lethal, developmental, cardiotoxicity). The note with it: 6 to 120 hpf; for toxicity in zebrafish embryos (survival/teratogenicity, in words): doses up to 150 µM. How it is done: The toxicity evaluation of B12-JR1, B12-JR1-CBC and vitamin B12 in the zebrafish model was carried out according to general rules of the OECD Guidelines for the Testing of Chemicals. […] Embryos of wild type zebrafish (Danio rerio, AB strain) were raised in a temperature- and light-controlled zebrafish facility with 28 °C and standard 14:10-h light-dark photoperiod, and regularly fed with commercially dry flake food (TetraMin™ flakes; Tetra Melle, Germany) twice a day and Artemia nauplii once daily. Zebrafish embryos were produced by the pair-wise mating, collected and distributed into 24-well plates containing 10 embryos per well and 1 mL embryos water (0.2 g L^−1 of Instant Ocean® Salt in distilled water), and raised at 28 °C. […] Experiments were performed three times using 30 embryos per concentration. Apical endpoints for the toxicity evaluation (Table S1) were recorded at 24, 48, 72, 96 and 120 hpf using an inverted microscope (CKX41; Olympus, Tokyo, Japan). […] Experiments were performed three times using 5 embryos per concentration. The hepatotoxicity was determined according to the change of liver area index compared to the control group, calculated as the ration between liver area and embryonic lateral area x 100%, as reported by Zhang et al.. In addition, the liver colour and retention of yolk were followed as the phenotypic signs of hepatotoxicity.

For data set [6], the system named is human lung fibroblasts (MRC5) cell line. Kind of data set: In vitro cytotoxicity, MTT assay, MRC5. The note with it: 48 h, 5 to 200 μM, read-out: IC50 against MRC5. In kind it is cell-based. How it is done: as §3
In data set [7] the test system is liver of Tg(fabp10:EGFP) zebrafish embryos. Kind of data set: Zebrafish hepatotoxicity, transgenic Tg(fabp10:EGFP) embryos. The following applies: 150 µM. The format is in vivo, Danio rerio. The method, then:
as §2
Dead embryos were counted and discarded every 24 h.

Data set [8] concerns blood stage. The note with it: cited from earlier work.
The mark [9] stands for this setting: Plasmodium falciparum, CQS NF54 strain, asexual erythrocyte stages, triplicate, na = not active at the tested concentration, read-out: NF54 IC50 ± SD.
The mark [10] stands for this setting: Plasmodium falciparum, CQR K1 strain, asexual erythrocyte stages, triplicate, read-out: K1 IC50 ± SD.
The mark [11] stands for this setting: CQS NF54 strain, asexual erythrocyte stages, triplicate, na = not active at the tested concentration, read-out: NF54 IC50 ± SD.
Setting [12] is: CQR K1 strain, asexual erythrocyte stages, triplicate, read-out: K1 IC50 ± SD.

As usually defined, the IC50 is the concentration needed to halve the response being measured. Usually LC50 stands for the concentration lethal to half of the exposed cells or organisms. Higher therefore signals lower toxicity.

Like-named read-outs stand apart in the source and are kept apart here.

With `C#Cc1ccc(-c2cn(CC(=O)N3CCn4c(nc(-c5ccc(F)cc5)c4Nc4ccc(F)cc4)C3(C)C)nn2)cc1` [SN1, 2-(4-(4-ethynylphenyl)-1H-1,2,3-triazol-1-yl)-1-(2-(4-fluorophenyl)-3-((4-fluorophenyl)amino)-8,8-dimethyl-5,6-dihydroimidazo[1,2-a]pyrazin-7(8H)-yl)ethan-1-one], the “activity in the sensitive strain (in words)” value in data set [1] is “inactive”.

In the case of `C#Cc1ccc(-c2cn(CCNc3ccnc4cc(Cl)ccc34)nn2)c(F)c1` [JR3, 7-chloro-N-(2-(4-(4-ethynyl-2-fluorophenyl)-1H-1,2,3-triazol-1-yl)ethyl)quinolin-4-amine], the “activity in the sensitive strain (in words)” value in data set [1] was “good activity”. Moreover, the 50% inhibitory concentration (IC50) came to 0.19 ± 0.02 µM in data set [1] (setting [9]) and 0.21 ± 0.02 µM in data set [2] (setting [10]). Also, in data set [2], the “Resistance Index (RI)” value is 1.1.

Regarding `CCN(CC)CCCC(C)Nc1ccnc2cc(Cl)ccc12` (centres unmarked) [CQ, chloroquine, reference compound], the half-maximal inhibitory concentration (IC50) turned out to be 0.013 ± 0.001 µM in data set [1] (Plasmodium falciparum, NF54, Erythrocyte, read-out: NF54 IC50 ± SD) and 0.4 ± 0.04 µM in data set [2] (Plasmodium falciparum, K1, Erythrocyte, read-out: K1 IC50 ± SD).

Regarding “cobalamin-7-chloro-N-(2-(4-(4-ethynylphenyl)-1H-1,2,3-triazol-1-yl)ethyl)quinolin-4-amine [Compound B12-JR1]”, in data set [3] (150 µM, 106–120 hpf), the “organ distribution when applied in the embryo water (in words)” value was “preferential accumulation of both compounds in the liver”. Also, the “effect on liver development (in words)” value in data set [3] (after the exposure period, 150 µM of B12-JR1 and 20 µM B12-JR1-CBC) was “did not affect the liver development”. Also, in data set [3] (parenteral, microinjected at 106 hpf, analysed at 120 hpf), the “organ distribution after microinjection into the blood circulation (in words)” value was “solely detected in the liver”. The half-maximal inhibitory concentration (IC50) in data set [1] (setting [11]) came to 6.27 ± 0.37 µM; in data set [1] (Table 2, in vitro data obtained in the cell-based assay, read-out: IC50 NF54), 6.3 µM; in data set [2] (setting [12]) it was 9.18 ± 0.85 µM; in data set [2] (Table 2, in vitro data obtained in the cell-based assay, read-out: IC50 K1), 9.2 µM; in data set [6] it was 70 µM. Further, the “toxicity against CHO cells (in words)” value in data set [4] is “not to be toxic”. In addition, the “Resistance Index (RI)” value in data set [2] is 1.5. The “activity against the CQR K1 strain relative to CQS (in words)” value in data set [2] is “equally active”. Further, in data set [5], the “toxicity in zebrafish embryos (survival/teratogenicity, in words)” value is “neither toxic”. Besides, in data set [5] (zebrafish model), the 50% lethal concentration (LC50) is > 150 µM. Moreover, the “liver area index (in words)” value in data set [7] (exposure 72–120 hpf) was “did not affect the liver area index”. The “liver size and fluorescence (in words)” value in data set [7] (exposure 72–120 hpf) was “no changes in the liver size and fluorescence”. Besides, the “hepatotoxicity (in words)” value in data set [7] (dose 16–24 higher than the one active against Plasmodium strains) is “not hepatotoxic”.

As for “cobalamin-7-chloro-N-(2-(4-(4-ethynyl-3-fluorophenyl)-1H-1,2,3-triazol-1-yl)ethyl)quinolin-4-amine [Compound B12-JR2]”, in data set [1] (setting [11]), the IC50 was found to be 4.73 ± 0.32 µM. The IC50 in data set [2] (setting [12]) was 6.02 ± 0.71 µM. In data set [2], the “Resistance Index (RI)” value came to 1.3 and the “activity against the CQR K1 strain relative to CQS (in words)” value is on record as “equally active”.

In the case of “Cobalamin-2-(4-(4-ethynylphenyl)-1H-1,2,3-triazol-1-yl)-1-(2-(4-fluorophenyl)-3-((4-fluorophenyl)amino)-8,8-dimethyl-5,6-dihydroimidazo[1,2-a]pyrazin-7(8H)-yl)ethan-1-one [Compound B12-SN1]”, the “activity in the sensitive strain (in words)” value in data set [1] is “inactive”.

In the case of `C#Cc1ccc(-c2cn(CCNc3ccnc4cc(Cl)ccc34)nn2)cc1F` [JR2, 7-chloro-N-(2-(4-(4-ethynyl-3-fluorophenyl)-1H-1,2,3-triazol-1-yl)ethyl)quinolin-4-amine], in data set [1], the “activity in the sensitive strain (in words)” value is “good activity”. The values for the concentration for half-maximal inhibition (IC50) in data set [1] (setting [9]) and in data set [2] (setting [10]) were 0.15 ± 0.01 µM and 0.16 ± 0.01 µM, respectively. Besides, the “Resistance Index (RI)” value in data set [2] is listed as 1.1.

As for “cyanocobalamin [vitamin B12, reference compound]”, the “toxicity in zebrafish embryos (survival/teratogenicity, in words)” value in data set [5] was “neither toxic”.

As for “cobalamin-7-chloro-N-(2-(4-(4-ethynyl-2-fluorophenyl)-1H-1,2,3-triazol-1-yl)ethyl)quinolin-4-amine [Compound B12-JR3]”, the 50% inhibitory concentration (IC50) was 9.68 ± 0.73 µM in data set [1] (setting [11]) and > 15 µM in data set [2] (setting [12]). Further, the “Resistance Index (RI)” value in data set [2] is on record as >1.6.

With `C#Cc1ccc(-c2cn(CCNc3ccnc4cc(Cl)ccc34)nn2)cc1` [JR1, 7-chloro-N-(2-(4-(4-ethynylphenyl)-1H-1,2,3-triazol-1-yl)ethyl)quinolin-4-amine], in data set [1], the “activity in the sensitive strain (in words)” value is “good activity”. Further, the results for the half-maximal inhibitory concentration (IC50) in data set [1] (setting [9]) and in data set [2] (setting [10]) were 0.14 ± 0.01 µM and 0.18 ± 0.02 µM, respectively. The “Resistance Index (RI)” value in data set [2] was found to be 1.3.

As for `C/C1=C2/[N-][C@H]([C@H](CC(N)=O)[C@@]2(C)CCC(=O)NC[C@@H](C)OP(=O)([O-])O[C@H]2[C@@H](O)[C@@H](n3cnc4cc(C)c(C)cc43)O[C@@H]2CO)[C@]2(C)N=C(/C(C)=C3N=C(/C=C4N=C1[C@@H](CCC(N)=O)C\4(C)C)[C@@H](CCC(N)=O)[C@]\3(C)CC(N)=O)[C@@H](CCC(N)=O)[C@]2(C)CC(N)=O.[CH2-][C@H]1O[C@@H](n2cnc3c(N)ncnc32)[C@H](O)[C@@H]1O.[Co]` [Ado-Cbl, adenosylcobalamin], the “rank of antimalarial activity among naturally occurring Cbls (in words)” value in data set [8] is reported as “most active”.
